Experimental data as given in patent US20100190768A1, “NOVEL FUSED PYROLE DERIVATIVE” (Dainippon Sumitomo Pharma Co., Ltd., priority 2005, published 2010).

Key:
human GRα protein = target: T1, human GRα protein (Homo sapiens, UniProt P04150); test: Binding inhibitory assay (displacement of 3H-dexamethasone from the cytoplasm fraction of baculovirus-infected insect cells); details: 3H-Dex, NSB with 10 μM dexamethasone; for inhibition at 0.1 µM: 100 nM test compound, read-out: Binding Inhibitory ratio (%) of 100 nM of test compound
T1 construct: made in house; host or cells: insect cells infected with baculovirus; cytoplasm fraction used
T1 sequence (P04150 1-777): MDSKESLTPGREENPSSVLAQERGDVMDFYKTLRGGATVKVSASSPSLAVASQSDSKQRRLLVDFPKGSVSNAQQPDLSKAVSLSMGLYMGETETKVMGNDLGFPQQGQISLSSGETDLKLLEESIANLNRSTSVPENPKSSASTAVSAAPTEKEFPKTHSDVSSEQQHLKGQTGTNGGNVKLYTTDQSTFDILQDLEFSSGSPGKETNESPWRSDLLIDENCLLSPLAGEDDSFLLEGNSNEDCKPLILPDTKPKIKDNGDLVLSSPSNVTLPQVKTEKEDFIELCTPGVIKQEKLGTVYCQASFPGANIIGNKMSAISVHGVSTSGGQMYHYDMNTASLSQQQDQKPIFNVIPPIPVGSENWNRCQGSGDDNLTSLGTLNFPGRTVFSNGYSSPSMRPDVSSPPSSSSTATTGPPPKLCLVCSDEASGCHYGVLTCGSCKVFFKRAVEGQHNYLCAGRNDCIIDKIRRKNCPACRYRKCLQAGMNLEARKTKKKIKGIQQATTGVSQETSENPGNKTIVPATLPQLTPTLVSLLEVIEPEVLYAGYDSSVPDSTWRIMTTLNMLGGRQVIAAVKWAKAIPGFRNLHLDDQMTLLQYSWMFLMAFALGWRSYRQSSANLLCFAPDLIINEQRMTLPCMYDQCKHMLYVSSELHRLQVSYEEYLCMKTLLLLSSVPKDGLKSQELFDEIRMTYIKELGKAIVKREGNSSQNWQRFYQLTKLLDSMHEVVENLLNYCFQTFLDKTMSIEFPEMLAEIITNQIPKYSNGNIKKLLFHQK
Method: Insect cells, which had been infected with baculovirus for expressing human GRα protein, were suspended in an approximately equal volume of a binding buffer (10 mM Tris-Cl, 1.5 mM EDTA, 10% glycerol, 5 mM DTT, 20 mM sodium molybdate, pH 7.6). The mixture was rapidly frozen with liquid nitrogen, and then melted at room temperature. This cycle was repeated totally twice in order to break the cell membrane. The mixture was ultracentrifuged under 100,000 g at 4° C. for one hour to give the supernatant, which was the cytoplasm fraction containing human GRα protein.
A polypropylene 96-well plate (manufactured by Costar Corporation, etc.) was placed on ice, and DMSO or a test compound (each 1 μl) was put into each well. A 10 nM ^3H-Dex solution (50 μl; tritiated dexamethasone; manufactured by Amersham) in the binding buffer, and a GR protein solution, i.e., a solution by diluting the above cytoplasm fraction with the binding buffer (50 μl) were added to each well, and the plate was lightly shaken with a plate mixer, and then left to stand at 4° C. for 16 to 20 hours (the final concentration of DMSO: 1%).
A 5% solution of dextran-coated active carbon (manufactured by Sigma) suspended in the binding buffer (50 μl) was put into each well, and the plate was lightly shaken with a plate mixer for 30 seconds. Then, the plate was centrifuged at 2500 rpm at 4° C. for 5 minutes, and the ^3H count in the supernatant (50 μl) was measured by a TopCount (manufactured by Perkin-Elmer Corporation). Each test compound was tested twice.
The binding activity was calculated as follows. The mean ^3H count in the presence of dexamethason (Dex) 10 μM was considered as NSB (non-specific binding), and the binding inhibitory ratio in each well was calculated by the following equation.
Binding Inhibitory Ratio (%)=100×{1−(cpm value of each well−NSB)/(mean cpm value of DMSO-well−NSB)}
(cpm means count per minute)
The mean binding inhibitory ratio of each well was calculated by the above equation to give a binding inhibitory ratio of each test compound.

H4-III-E cells = test: TAT (tyrosine aminotransferase) assay; type: cell-based; details: for Antagonistic activity of 10 μM test compound: 10 μM test compound together with 0.005 μM dexamethasone, inhibitory ratio against TAT activity increase by Dex
Method: H4-III-E cells, which had been continuously cultured in α-MEM medium A (supplemented with 10% inactivated FBS, 50 μM 2-mercapto-ethanol), were suspended in α-MEM medium A or α-MEM medium B (supplemented with 10% inactivated FBS, 50 μM 2-mercapto-ethanol, but without phenol red), and the cell suspension was seeded to a 96-well plate in an amount of 2×10^4 cells/100 μl/well, and the cells were cultured overnight. The supernatant in the medium was removed, and a test compound (100 μl, diluted with α-MEM medium A or α-MEM medium B) was added, and the cells were further cultured overnight. In order to measure the agonistic activity, a test compound was added alone, while in order to measure the antagonistic activity, a test compound was added simultaneously together with 0.005 μM dexamethasone and evaluated the extent of the inhibitory effect of said test compound against the TAT activity-inducing activity by dexamethasone.
The culture supernatant in the plate was removed by suction, and a cell lysate (20 μL; 1% NP-40, 0.2% Triton X-100, 0.25% DOC, 0.1% SDS, 1 mM EGTA, 150 mM NaCl, Tris (pH7.4), Protease inhibitor cocktail [2.5 mg/ml aprotinin, 2.5 mg/ml leupeptin, 2.5 mg/ml soybean trypsin inhibitor]) was added, and further thereto was added a TAT reaction reagent (150 μL; 10 N KOH, 0.125 M KH2PO4, 0.5 M α-ketoglutarate, 5 mM Pyridoxal-5′ phosphate, L-tyrosine), and the mixture was reacted at 37° C. for 15 minutes. Further, a 10N KOH (20 μL) was added thereto, and the mixture was reacted at 37° C. for 30 minutes, and the absorbance at 331 nm was measured by a microplate reader (SPECTRA MAX 250).
From the mean absorbance in the wells to which a test compound was added, the mean absorbance in the wells to which a compound and a TAT reaction solution were not added was subtracted.
Agonistic activity (%)=100×[(absorbance of the drug-treated group)−(absorbance of the group without TAT reaction reagent)]/[(absorbance of Dex-treated group)−(absorbance of the group without TAT reaction reagent)]
On the other hand, the antagonistic activity was calculated as follows.
Antagonistic activity (%)=Inhibitory ratio (%) against TAT activity increase by Dex=100−100×[(absorbance of the drug-treated group)−(absorbance of the group without a drug)]/[(absorbance of Dex-treated group)−(absorbance of the group without a drug)]
With regard to the agonistic activity and the antagonistic activity, the results of 10% or more were expressed as O, while the results of less than 10% were expressed as X.

[1] = 10 μM test compound alone, relative to maximum Dex-induced TAT activity (100%)

## COc1cccc(N2CCN(CC(O)(c3cn(Cc4ccccc4)c4cc([N+](=O)[O-])ccc34)C(F)(F)F)CC2)c1 (stereo not drawn) [Example 144, 2-(1-Benzyl-6-nitro-1H-indol-3-yl)-1,1,1-trifluoro-3-[4-(3-methoxyphenyl)-piperazin-1-yl]propan-2-ol]
Human GRα protein
  inhibition at 0.1 µM: 97%
H4-III-E cells; [1]
  Agonistic activity of 10 μM test compound: ◯
H4-III-E cells
  Antagonistic activity of 10 μM test compound: ◯

## CCOC(=O)Cc1ccc(OC2CCN(CC(O)(c3cn(Cc4ccccc4)c4cc([N+](=O)[O-])ccc34)C(F)(F)F)CC2)c(OC)c1 (stereo not drawn) [Example 200, Ethyl[4-({1-[2-(1-benzyl-6-nitro-1H-indol-3-yl)-3,3,3-trifluoro-2-hydroxypropyl]-piperidin-4-yl}oxy)-3-methoxyphenyl]acetate]
Human GRα protein
  inhibition at 0.1 µM: 88%
H4-III-E cells; [1]
  Agonistic activity of 10 μM test compound: ◯
H4-III-E cells
  Antagonistic activity of 10 μM test compound: ◯

## O=[N+]([O-])c1ccc2c(C(O)(CN3CCC(Oc4ccccc4Cl)CC3)C(F)(F)F)cn(Cc3ccccc3)c2c1 (stereo not drawn) [Example 119, 2-(1-Benzyl-6-nitro-1H-indol-3-yl)-3-[4-(2-chlorophenoxy)piperidin-1-yl]-1,1,1-trifluoropropan-2-ol]
Human GRα protein
  inhibition at 0.1 µM: 78%
H4-III-E cells; [1]
  Agonistic activity of 10 μM test compound: ◯
H4-III-E cells
  Antagonistic activity of 10 μM test compound: ◯

## O=[N+]([O-])c1ccc2c(C(O)(CN3CCN(c4ccccc4)CC3)C(F)(F)F)cn(Cc3ccccc3)c2c1 (stereo not drawn) [Example 75, 2-(1-Benzyl-6-nitro-1H-indol-3-yl)-1,1,1-trifluoro-3-(4-phenylpiperazin-1-yl)propan-2-ol]
Human GRα protein
  inhibition at 0.1 µM: 96%
H4-III-E cells; [1]
  Agonistic activity of 10 μM test compound: ◯
H4-III-E cells
  Antagonistic activity of 10 μM test compound: ◯

## O=C(O)CCc1ccc(OC2CCN(CC(O)(c3cn(Cc4ccccc4)c4cc([N+](=O)[O-])ccc34)C(F)(F)F)CC2)cc1 (stereo not drawn) [Example 182, 3-[4-({1-[2-(1-Benzyl-6-nitro-1H-indol-3-yl)-3,3,3-trifluoro-2-hydroxypropyl]-piperidin-4-yl}oxy)phenyl]propanoic acid]
Human GRα protein
  inhibition at 0.1 µM: 99%
H4-III-E cells; [1]
  Agonistic activity of 10 μM test compound: ◯
H4-III-E cells
  Antagonistic activity of 10 μM test compound: ◯

## O=[N+]([O-])c1ccc2c(C(O)(CNCc3ccccc3)C(F)(F)F)cn(Cc3ccccc3)c2c1 (stereo not drawn) [Example 137, 3-(Benzylamino)-2-(1-benzyl-6-nitro-1H-indol-3-yl)-1,1,1-trifluoropropan-2-ol]
Human GRα protein
  inhibition at 0.1 µM: 92%
H4-III-E cells; [1]
  Agonistic activity of 10 μM test compound: ◯
H4-III-E cells
  Antagonistic activity of 10 μM test compound: ◯

## CCOC(=O)Cc1ccc(OC2CCN(CC(O)(c3cn(Cc4ccccc4)c4cc([N+](=O)[O-])ccc34)C(F)(F)F)CC2)cc1 (stereo not drawn) [Example 179]
Human GRα protein
  inhibition at 0.1 µM: 81%
H4-III-E cells; [1]
  Agonistic activity of 10 μM test compound: ◯
H4-III-E cells
  Antagonistic activity of 10 μM test compound: ◯

## CCOC(=O)C(O)(c1cn(Cc2ccccc2)c2c([N+](=O)[O-])cccc12)C(F)(F)F (stereo not drawn) [Example 21, Ethyl 2-(1-benzyl-7-nitro-1H-indol-3-yl)-3,3,3-trifluoro-2-hydroxypropanoate]
Human GRα protein; 1 μM test compound
  Binding Inhibitory ratio (%) of test compound (1 μM): 79%
H4-III-E cells; 10 μM test compound alone, relative to maximum Dex-induced TAT activity (100%), read-out: Agonistic activity of 10 μM test compound
  activation at 10 µM: < 10%
H4-III-E cells
  Antagonistic activity of 10 μM test compound: ◯

## O=C(c1cccs1)C1CCN(CC(O)(c2cn(Cc3ccccc3)c3cc([N+](=O)[O-])ccc23)C(F)(F)F)CC1 (stereo not drawn) [Example 194, {1-[2-(1-Benzyl-6-nitro-1H-indol-3-yl)-3,3,3-trifluoro-2-hydroxypropyl]piperidin-4-yl}(2-thienyl)methanone]
Human GRα protein
  inhibition at 0.1 µM: 94%
H4-III-E cells; [1]
  Agonistic activity of 10 μM test compound: ◯
H4-III-E cells
  Antagonistic activity of 10 μM test compound: ◯

## CC(C)(C)OC(=O)N1CCN(CC(O)(c2cn(Cc3ccccc3)c3cc([N+](=O)[O-])ccc23)C(F)(F)F)CC1 (stereo not drawn) [Example 100, tert-Butyl 4-[2-(1-benzyl-6-nitro-1H-indol-3-yl)-3,3,3-trifluoro-2-hydroxypropyl]-piperazine-1-carboxylate]
Human GRα protein
  inhibition at 0.1 µM: 101%
H4-III-E cells; [1]
  Agonistic activity of 10 μM test compound: ◯
H4-III-E cells
  Antagonistic activity of 10 μM test compound: ◯

## O=C(c1cccs1)N1CCN(CC(O)(c2cn(Cc3ccccc3)c3cc([N+](=O)[O-])ccc23)C(F)(F)F)CC1 (stereo not drawn) [Example 106, 2-(1-Benzyl-6-nitro-1H-indol-3-yl)-1,1,1-trifluoro-3-[4-(2-thienylcarbonyl)-piperazin-1-yl]propan-2-ol]
Human GRα protein
  inhibition at 0.1 µM: 101%
H4-III-E cells; [1]
  Agonistic activity of 10 μM test compound: ◯
H4-III-E cells
  Antagonistic activity of 10 μM test compound: ◯

## O=C(c1cccnc1)C1CCN(CC(O)(c2cn(Cc3ccccc3)c3cc([N+](=O)[O-])ccc23)C(F)(F)F)CC1 (stereo not drawn) [Example 197, {1-[2-(1-Benzyl-6-nitro-1H-indol-3-yl)-3,3,3-trifluoro-2-hydroxypropyl]piperidin-4-yl}(pyridin-3-yl)methanone]
Human GRα protein
  inhibition at 0.1 µM: 94%
H4-III-E cells; [1]
  Agonistic activity of 10 μM test compound: ◯
H4-III-E cells
  Antagonistic activity of 10 μM test compound: ◯

## O=[N+]([O-])c1ccc2c(C(O)(CN3CCCC(O)C3)C(F)(F)F)cn(Cc3ccccc3)c2c1 (stereo not drawn) [Example 165, 1-[2-(1-Benzyl-6-nitro-1H-indol-3-yl)-3,3,3-trifluoro-2-hydroxypropyl]piperidin-3-ol]
Human GRα protein
  inhibition at 0.1 µM: 95%
H4-III-E cells; [1]
  Agonistic activity of 10 μM test compound: ◯
H4-III-E cells
  Antagonistic activity of 10 μM test compound: ◯
